Nine compounds from patent US20260317319A1, “NOVEL ERGOLINES AND METHODS OF TREATING MOOD DISORDERS” (Gilgamesh Pharma Inc., priority 2023, published 2026) can be followed below.

For one series, the target named is T1, 5-HT2B receptor (Homo sapiens, UniProt P41595).
T1 construct: expressed in transfected cells; host or cells: HEK293, stably transfected
Briefly: cell-based. It is filed as cell-based. The settings on record: Ca2+ flux; for Emax: HEK293, agonist, HEK293, max dose, read-out: 5-HT2B % Act @ Max Dose; for EC50: agonist, HEK293. Summed up:
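FLIPR Tetra fluorescence read-out of calcium flux after compound addition. Receptor-expressing stable lines were used (HEK293 for 2A/2B; CHO with Gα15 for 1A), dye-loaded with Fluo-4 Direct and 2.5 mM final probenecid, 50 min at 37 °C.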

Series [1] deals with T2, 5-HT2A receptor (Homo sapiens, UniProt P28223). Put plainly: cell-based. The settings on record: agonist, beta-arrestin recruitment, max dose; read-out: 5-HT2A Arrestin % Act @ Max Dose. It is filed as cell-based. The protocol: Arrestin Functional Assay at 5-HT2A. Recruitment of beta-arrestin was determined using a PathHunter assay at Eurofins DiscoverX (Fremont, CA) according to their standard protocols. PathHunter GPCR beta-arrestin assays take advantage of DiscoverX's proprietary Enzyme Fragment Complementation technology. The GPCR is fused in frame with a small enzyme donor fragment ProLink™ (PK) and co-expressed in cells stably expressing a fusion protein of beta-arrestin and the larger, N-terminal deletion mutant of beta-galactosidase. Activation of the GPCR (5-HT2A receptor in this case) stimulates binding of beta-arrestin to the PK-tagged GPCR and forces complementation of the two enzyme fragments, resulting in the formation of an active beta-galactosidase enzyme. This interaction leads to an increase in enzyme activity that can be measured using chemiluminescent PathHunter Detection Reagents. Briefly, PathHunter cells expressing 5-HT2A receptors were seeded in a volume of 20 μL into 384-well plates and incubated at 37° C. for the appropriate time prior to testing. […] Plates were then imaged on a microplate reader and the agonist activity was calculated using the following formula: % Activity=100%×(mean RLU of test sample-mean RLU of vehicle control)/(mean MAX control ligand-mean RLU of vehicle control), where RLU=relative light units.
T2 sequence (P28223 whole entry, the tested form may be a part): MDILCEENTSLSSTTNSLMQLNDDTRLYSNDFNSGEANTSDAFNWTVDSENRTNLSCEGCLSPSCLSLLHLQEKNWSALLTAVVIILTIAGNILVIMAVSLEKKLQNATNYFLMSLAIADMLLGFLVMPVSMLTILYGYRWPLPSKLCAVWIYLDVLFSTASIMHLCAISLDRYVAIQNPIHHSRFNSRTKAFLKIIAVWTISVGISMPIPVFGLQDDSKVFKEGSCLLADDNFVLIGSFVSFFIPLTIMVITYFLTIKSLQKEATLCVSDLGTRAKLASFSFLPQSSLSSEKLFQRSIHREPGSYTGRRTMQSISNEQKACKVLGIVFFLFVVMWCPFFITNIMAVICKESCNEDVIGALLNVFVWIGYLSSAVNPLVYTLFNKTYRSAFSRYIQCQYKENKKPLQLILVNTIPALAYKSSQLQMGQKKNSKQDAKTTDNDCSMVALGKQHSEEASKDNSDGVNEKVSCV

Series [2] addresses T2, 5-HT2A receptor. Put plainly: cell-based. Type of series: cell-based. Details: expressed in transfected cells; host or cells: HEK293, stably transfected. The settings on record: Ca2+ flux; for Emax: HEK293, agonist, HEK293, max dose, read-out: 5-HT2A % Act @ Max Dose; for EC50: agonist, HEK293. The essentials: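 Stable HEK293 (5-HT2A, 5-HT2B) or CHO/Gα15 (5-HT1A) cells; Fluo-4 Direct, probenecid 2.5 mM final; 50 min dye load, 37 °C, 5% CO2; agonist-mode Ca2+ flux, FLIPR Tetra.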
A general note: Calcium assays in cells follow changes in intracellular calcium, usually with a dye or a luminescent sensor.

For another series, the target named is T3, 5-HT1A receptor (Homo sapiens, UniProt P08908).
T3 construct: expressed in transfected cells; host or cells: CHO cells, stably transfected
T3 sequence (P08908 1-422): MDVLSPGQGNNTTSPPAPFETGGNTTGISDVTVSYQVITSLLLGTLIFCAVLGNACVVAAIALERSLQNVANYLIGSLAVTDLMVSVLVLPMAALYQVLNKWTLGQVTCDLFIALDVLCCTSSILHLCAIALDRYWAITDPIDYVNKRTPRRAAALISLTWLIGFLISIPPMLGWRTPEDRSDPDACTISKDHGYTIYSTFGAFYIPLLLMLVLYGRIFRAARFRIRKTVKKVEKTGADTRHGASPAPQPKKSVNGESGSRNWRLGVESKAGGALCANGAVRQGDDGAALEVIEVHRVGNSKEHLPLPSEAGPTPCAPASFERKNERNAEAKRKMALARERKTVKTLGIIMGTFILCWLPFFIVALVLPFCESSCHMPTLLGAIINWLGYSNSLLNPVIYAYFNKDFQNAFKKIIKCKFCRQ
Briefly: cell-based. The settings on record: agonist, Ca2+ flux; for Emax: CHO, CHO cells with Gα15, max dose, read-out: 5-HT1A % Act @ Max Dose; for EC50: CHO cells with Gα15. The essentials: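 Receptor agonism was assessed as intracellular calcium mobilization in stably transfected cells, with CHO cells additionally carrying Gα15 for the 5-HT1A readout. Calcium was monitored with Fluo-4 Direct dye.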

The next series concerns the target T4, 5-HT2C receptor (Homo sapiens, UniProt P28335).
T4 sequence (P28335 33-458): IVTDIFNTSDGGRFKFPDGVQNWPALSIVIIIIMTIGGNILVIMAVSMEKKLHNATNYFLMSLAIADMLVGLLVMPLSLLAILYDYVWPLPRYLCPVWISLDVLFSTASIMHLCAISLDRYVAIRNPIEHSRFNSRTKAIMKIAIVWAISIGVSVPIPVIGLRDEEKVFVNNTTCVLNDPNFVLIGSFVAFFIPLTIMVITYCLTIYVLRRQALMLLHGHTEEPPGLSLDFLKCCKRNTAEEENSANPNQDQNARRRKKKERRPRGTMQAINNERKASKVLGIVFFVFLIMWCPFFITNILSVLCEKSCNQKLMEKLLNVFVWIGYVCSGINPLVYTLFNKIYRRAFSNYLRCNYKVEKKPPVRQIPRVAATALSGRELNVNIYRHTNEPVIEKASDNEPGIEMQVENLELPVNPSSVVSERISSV
Put plainly: cell-based. The settings on record: for Emax: read-out: 5-HT2C % Act @ Max Dose; for EC50: read-out: 5-HT2C EC50.

A short description of series [3]: in vitro. Type of series: in vitro ADME, rat. The settings on record: RLM (male Sprague-Dawley) 0.50 mg/mL, NADPH 1 mM, 1 μM compound, pH 7.4, 37° C., 60 min; for microsomal CLint / half-life: rat, microsomes; for microsomal CLint: read-out: Intrinsic clearance (Clint); for half-life: read-out: half-life (t1/2). The source says: RLM Stability Pooled RLM from male Sprague-Dawley rats (Xenotech R1000) were used.

Series [4] has as its target T2, 5-HT2A receptor. Put plainly: biochemical. It is filed as binding. Details: expressed in transfected cells; host or cells: HEK293, stably transfected. The settings on record: [3H]ketanserin 1 nM; HEK293 stable cell line; 1 h, 25 °C. The essentials: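 Test compounds competed with [^3H]ketanserin for receptor binding, and affinity was derived from the radioligand displacement.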

A short description of series [5]: in vitro. Type of series: in vitro ADME, human. The note with it: HLM 0.50 mg/mL, NADPH 1 mM, 1 μM compound, pH 7.4, 37° C., 60 min; for microsomal CLint / half-life: human, microsomes; for microsomal CLint: read-out: Intrinsic clearance (Clint); for half-life: read-out: half-life (t1/2).
Series [6] in a line: in vitro. The note with it: MLM (male CD-1) 0.50 mg/mL, NADPH 1 mM, 1 μM compound, pH 7.4, 37° C., 60 min; for microsomal CLint / half-life: mouse, microsomes; for microsomal CLint: read-out: Intrinsic clearance (Clint); for half-life: read-out: half-life (t1/2). It is filed as in vitro ADME, mouse. The source says: MLM Stability Pooled MLM from male CD-1 mice (BIOIVT M00501) were used.

Setting [7] is: agonist, Ca2+ flux, Eurofins DiscoverX protocol.
[8] abbreviates: agonist, Ca2+ flux, Eurofins DiscoverX protocol, max dose.

Molecules are shown by their SMILES. Where two headings read alike, the source gives them in different places.

A word on the Ki: it is the dissociation constant of the complex between target and ligand, obtained from inhibition or displacement. A lower Ki goes with higher affinity. As usually defined, the EC50 is the midpoint of the concentration-response curve.

T1 sequence (P41595 whole entry): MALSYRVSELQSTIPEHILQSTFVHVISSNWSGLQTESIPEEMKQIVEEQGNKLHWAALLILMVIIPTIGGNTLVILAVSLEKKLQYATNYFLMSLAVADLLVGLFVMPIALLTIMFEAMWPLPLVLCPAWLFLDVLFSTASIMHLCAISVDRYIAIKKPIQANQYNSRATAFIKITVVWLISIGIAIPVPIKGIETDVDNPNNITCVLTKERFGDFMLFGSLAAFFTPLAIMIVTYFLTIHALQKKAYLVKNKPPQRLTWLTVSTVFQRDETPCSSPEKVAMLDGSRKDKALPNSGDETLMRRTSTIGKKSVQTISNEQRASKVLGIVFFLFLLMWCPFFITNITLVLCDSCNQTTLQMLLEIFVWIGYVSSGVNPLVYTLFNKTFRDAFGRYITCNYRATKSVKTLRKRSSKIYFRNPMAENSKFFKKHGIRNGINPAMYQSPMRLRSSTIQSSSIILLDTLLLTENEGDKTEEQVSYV

For the compound `CC[C@@H](C)NC(=O)[C@H]1C=C2c3cccc4[nH]cc(c34)C[C@H]2N(C)C1` [Int8a], the Emax amounted to 6.87% on 5-HT2B receptor; 35.5% on 5-HT2A receptor [1]; 72.6% at 5-HT2A receptor [2]; 104% at 5-HT1A receptor; 93.7% on 5-HT2C receptor.

Turning to `CCN(CC)C(=O)[C@@H]1C=C2c3cccc4[nH]cc(c34)C[C@H]2N(Cc2ccc(C)cc2)C1` [Compound 97, (6aR,9R)—N,N-diethyl-7-(4-methylbenzyl)-4,6,6a,7,8,9-hexahydroindolo[4,3-fg]quinoline-9-carboxamide], the microsomal CLint in “in vitro [3]” came to 532 µL/min/mg; in the series “in vitro [5]”, 63.5 µL/min/mg; in the series “in vitro [6]”, 511 µL/min/mg. Besides, the half-life in the series “in vitro [3]” stood at 2.6 min; in the series “in vitro [5]”, 21.8 min; in “in vitro [6]”, 2.7 min. At 5-HT2A receptor [4], this compound returned a Ki of 23.1 nM. Also, the concentration for a half-maximal effect (EC50) is 16.6 nM on 5-HT2B receptor, 23.1 nM on 5-HT2A receptor [2], above 100000 nM on 5-HT1A receptor and 4.06 nM at 5-HT2C receptor (setting [7]). The Emax at 5-HT1A receptor is 84.5%.

As to `CCN(CC)C(=O)[C@H]1C=C2c3cccc4[nH]cc(c34)C[C@H]2N(CCCF)C1` [Compound 2a, (6aR,9S)—N,N-diethyl-7-(3-fluoropropyl)-4,6,6a,7,8,9-hexahydroindolo[4,3-fg]quinoline-9-carboxamide], the “half-life (t1/2)” value in the series “in vitro [3]” was determined as 9.673 min; in “in vitro [5]”, 17.018 min; in “in vitro [6]”, 1.776 min. Moreover, the Emax at 5-HT2B receptor turned out to be 40.1%; at 5-HT2A receptor [1] it was 83.3%; at 5-HT2A receptor [2], 90.3%; at 5-HT1A receptor, 96.8%; at 5-HT2C receptor (setting [8]) it was 119%.

Turning to `CCCN1C[C@@H](C(=O)N[C@H](C)CC)C=C2c3cccc4[nH]cc(c34)C[C@H]21` [Compound 3a, (6aR,9S)—N—((R)-sec-butyl)-7-propyl-4,6,6a,7,8,9-hexahydroindolo[4,3-fg]quinoline-9-carboxamide], the “half-life (t1/2)” value in the series “in vitro [3]” is on record as 1.4 min; in “in vitro [5]” it was 2.2 min; in “in vitro [6]”, 0.6 min. Also, the Emax is 52.8% at 5-HT2B receptor; 113% on 5-HT2A receptor [1]; 92% on 5-HT2A receptor [2]; 108% on 5-HT1A receptor; 109% on 5-HT2C receptor (setting [8]).

`C=CCN1C[C@@H](C(=O)N[C@H](C)CC)C=C2c3cccc4[nH]cc(c34)C[C@H]21` [Compound 8a, (6aR,9S)-7-allyl-N—((R)-sec-butyl)-4,6,6a,7,8,9-hexahydroindolo[4,3-fg]quinoline-9-carboxamide]: the “half-life (t1/2)” value in the series “in vitro [3]” was determined as 1.7 min; in “in vitro [5]”, 3.4 min; in “in vitro [6]”, 0.8 min. Also, the Emax came out at 35.7% on 5-HT2B receptor; 81.1% at 5-HT2A receptor [1]; 87.5% on 5-HT2A receptor [2]; 90.3% at 5-HT1A receptor; 13.3% on 5-HT2C receptor (setting [8]).

In the case of `CC[C@@H](C)NC(=O)[C@H]1C=C2c3cccc4[nH]cc(c34)C[C@H]2N(CC)C1` [Compound 5a, (6aR,9S)—N—((R)-sec-butyl)-7-ethyl-4,6,6a,7,8,9-hexahydroindolo[4,3-fg]quinoline-9-carboxamide], the “half-life (t1/2)” value amounted to 3.1 min in “in vitro [3]”, 5.5 min in the series “in vitro [5]” and 1.7 min in “in vitro [6]”. In addition, the Emax amounted to 43.7% on 5-HT2B receptor; 62.4% on 5-HT2A receptor [1]; 89.6% on 5-HT2A receptor [2]; 112% at 5-HT1A receptor; 99.4% at 5-HT2C receptor (setting [8]).

In the case of `CCN(CC)C(=O)[C@@H]1C=C2c3cccc4[nH]cc(c34)C[C@H]2N(Cc2ccc(F)c(F)c2)C1` [Compound 54, (6aR,9R)-7-(3,4-difluorobenzyl)-N,N-diethyl-4,6,6a,7,8,9-hexahydroindolo[4,3-fg]quinoline-9-carboxamide], the microsomal CLint in “in vitro [3]” was determined as 110 µL/min/mg; in the series “in vitro [5]” it was 73.9 µL/min/mg; in “in vitro [6]” it was 242 µL/min/mg. For the same compound, the half-life stood at 12.6 min in the series “in vitro [3]”, 18.7 min in the series “in vitro [5]” and 5.7 min in the series “in vitro [6]”. Also, the inhibitory constant (Ki) on 5-HT2A receptor [4] is 5.4 nM. The Emax on 5-HT2B receptor was found to be 0.91%; at 5-HT2A receptor [2], 59.2%; at 5-HT1A receptor it was 51%; on 5-HT2C receptor (setting [8]) it was 8.36%. Also, the EC50 at 5-HT2B receptor is above 10000 nM; on 5-HT2A receptor [2] it was 1870 nM; on 5-HT1A receptor, above 100000 nM; on 5-HT2C receptor (setting [7]), above 10000 nM.

For `CCC[C@@H](C)NC(=O)[C@H]1C=C2c3cccc4[nH]cc(c34)C[C@H]2N(C)C1` [Int17a], the Emax at 5-HT2B receptor came out at 5.63%; at 5-HT2A receptor [1], 43.7%; on 5-HT2A receptor [2], 63.3%; on 5-HT1A receptor, 88.5%; on 5-HT2C receptor, 112%.

For the compound `CCC(CC)NC(=O)[C@H]1C=C2c3cccc4[nH]cc(c34)C[C@H]2N(C)C1` [Int14a], the Emax at 5-HT2B receptor is 1.86%; at 5-HT2A receptor [1] it was 44.3%; at 5-HT2A receptor [2], 33%; on 5-HT1A receptor, 70.3%; at 5-HT2C receptor, 119%.
